Results: patent publication EP0609437B1, “NOVEL SPHINGOGLYCOLIPID AND USE THEREOF” (KIRIN BEER KABUSHIKI KAISHA, priority 1991, dated 1993)

How the values were obtained:
[1] = tested on: spleen cells of C57BL/6 mouse and pancreatic cells of BALB/c mouse; assay: Lymphocyte mixed culture reaction (mouse MLR), uptake of 3H-TdR; assay type: cell-based; details: Mus musculus, Lymphocyte, 50 h, cultured for 42 hours, then 8 hours with 3H-TdR, read-out: Uptake of ^3H-TdR (% of control); for activity at 1 µg/mL: sample concentration 10^0 µg/ml; for activity at 0.1 µg/mL: sample concentration 10^-1 µg/ml; for activity at 0.01 µg/mL: sample concentration 10^-2 µg/ml
Method: Experiment was carried out with the spleen cells of C57BL/6 mouse which had been treated with mitomycin C (50 µg/ml, 30 min) as the stimulator and with the […] cells of BALB/c mouse as the responder. These […] cells were suspended to a concentration of 2 × 10^6 cells/ml with a culture medium of 10% FCS RPMI 1640, respectively. These cells (50 µl/well) and a sample (10 µl/well) were plated in a 96 well round-bottomed plate and cultured for 42 hours* under the condition of 37°C and 5% CO2. ^3H-thymidine (^3H-TdR) was added in a dose of 0.5 µCi/well. After 8 hours, the cells were harvested and subjected to the measurement of the uptake of ^3H-TdR by a liquid scintillation counter.
*The samples of the compounds 32, 33 and 34 were cultured for 4 days.

B16 mouse melanoma cells = assay: Anti-tumor activity against B16 mouse melanoma inoculated subcutaneously; assay type: in vivo; details: Mus musculus, iv, 480 h; maximum tumor growth inhibition rate during the test period of 20 days; female BDF1 mice; 0.1 mg/kg intravenously on days 1, 5 and 9 after s.c. inoculation; read-out: TGIR (%)
Method: Anti-tumor activity against B16 mouse melanoma inoculated subcutaneously.
Experiment was carried out with the groups of 6 female BDF1 mice (6 weeks old) purchased from Japan SLC Inc., B16 mouse melanoma cells (1 × 10^6 cells/mouse) were inoculated subcutaneously in the rear region of mice, and the sample prepared in a concentration of 0.1 mg/kg was administered intravenously at a dose of 0.2 ml/20g/mouse after 1, 5 and 9 days from inoculation (the day of inoculation being set as 0 day). The volume of the tumor at the hypodermis of the rear region [(longer diameter × shorter diameter × height)/2] was measured on 8, 12, 16 and 20 days after inoculation, and the tumor growth inhibition rate (TGIR) of each sample was determined. TGIR was calculated from the following equation: TGIR (%) = (1 - T/C) × 100 [formula] wherein C represents a tumor volume of the control group and T represents a tumor volume of the group to which the sample was administered.
In this connection, respective test runs were divided by broken lines.

Compound | activity at 1 µg/mL [1] | activity at 0.1 µg/mL [1] | activity at 0.01 µg/mL [1] | inhibition in vivo at 0.1 mg/kg (B16 mouse melanoma cells)
CCCCCCCCCCCCCCCCCCCCCCCC(=O)N[C@@H](CO[C@H]1O[C@H](CO)[C@H](O)[C@H](O)[C@H]1O)[C@H](O)CCCCCCCCCCCCCCC [Compound 1, (2S,3R)-1-(α-D-galactopyranosyloxy)-2-tetracosanoylamino-3-octadecanol] | 359% | 151% | 136% | 91.4%
CCCCCCCCCCCCCCCCCCCCCC(=O)N[C@@H](CO[C@H]1O[C@H](CO)[C@H](O)[C@H](O)[C@H]1O)[C@H](O)CCCCCCCCCCCCCCC [Compound 2, (2S,3R)-2-docosanoylamino-1-(α-D-galactopyranosyloxy)-3-octadecanol] | 329% | 115% | 103% | 53.1%
CCCCCCCCCCCCCCCCCCCC(=O)N[C@@H](CO[C@H]1O[C@H](CO)[C@H](O)[C@H](O)[C@H]1O)[C@H](O)CCCCCCCCCCCCCCC [Compound 3, (2S,3R)-1-(α-D-galactopyranosyloxy)-2-icosanoylamino-3-octadecanol] | 254% | 117% | 110% | 56.9%
CCCCCCCCCCCCCCCCCC(=O)N[C@@H](CO[C@H]1O[C@H](CO)[C@H](O)[C@H](O)[C@H]1O)[C@H](O)CCCCCCCCCCCCCCC [Compound 4, (2S,3R)-1-(α-D-galactopyranosyloxy)-2-octadecanoylamino-3-octadecanol] | 269% | 158% | 134% | 78.1%
CCCCCCCCCCCCCCC[C@@H](O)[C@H](CO[C@H]1O[C@H](CO)[C@H](O)[C@H](O)[C@H]1O)NC(=O)CCCCCCCCC [Compound 6, (2S,3R)-2-decanoylamino-1-(α-D-galactopyranosyloxy)-3-octadecanol] | 498% | 190% | 187% | 73.7%
CCCCCCCCCCCCCCC[C@@H](O)[C@H](CO[C@H]1O[C@H](CO)[C@H](O)[C@H](O)[C@H]1O)NC(=O)CCCCCCC [Compound 7, (2S,3R)-1-(α-D-galactopyranosyloxy)-2-octanoylamino-3-octadecanol] | 853% | 576% | 207% | 18.5%
CCCCCCCCCCCCCCC[C@@H](O)[C@H](CO[C@H]1O[C@H](CO)[C@H](O)[C@H](O)[C@H]1O)NC(C)=O [Compound 8, (2S,3R)-2-acetamino-1-(α-D-galactopyranosyloxy)-3-octadecanol] | 297% | 189% | 96% | 22.1%
CCCCCCCCCCCCCCCCCCCCCCCC(=O)N[C@@H](CO[C@H]1O[C@H](CO)[C@H](O)[C@H](O)[C@H]1O)[C@H](O)CCCCCCCCCCC [Compound 9, (2S,3R)-1-(α-D-galactopyranosyloxy)-2-tetracosanoylamino-3-tetradecanol] | 460% | 193% | 176% | 71.5%
CCCCCCCCCCCCCC(=O)N[C@@H](CO[C@H]1O[C@H](CO)[C@H](O)[C@H](O)[C@H]1O)[C@H](O)CCCCCCCCCCCCC [Compound 10, (2S,3R)-1-(α-D-galactopyranosyloxy)-2-tetradecanoylamino-3-hexadecanol] | 610% | 381% | 157% | 76.5%
CCCCCCCCCCCCCC(=O)N[C@H](CO[C@H]1O[C@H](CO)[C@H](O)[C@H](O)[C@H]1O)[C@@H](O)CCCCCCCCCCCCC [Compound 11, (2R,3S)-1-(α-D-galactopyranosyloxy)-2-tetradecanoylamino-3-hexadecanol] | 128% | 105% | 95% | 55.9%
CCCCCCCCCCCCCC(=O)N[C@@H](CO[C@H]1O[C@H](CO)[C@H](O)[C@H](O)[C@H]1O)[C@@H](O)CCCCCCCCCCCCC [Compound 12, (2S,3S)-1-(α-D-galactopyranosyloxy)-2-tetradecanoylamino-3-hexadecanol] | 123% | 99% | 104% | 41.8%
CCCCCCCCCCCCCC(=O)N[C@H](CO[C@H]1O[C@H](CO)[C@H](O)[C@H](O)[C@H]1O)[C@H](O)CCCCCCCCCCCCC [Compound 13, (2R,3R)-1-(α-D-galactopyranosyloxy)-2-tetradecanoylamino-3-hexadecanol] | 139% | 106% | 107% | 28.2%
CCCCCCCCCCCCCCCCCCCCCC[C@@H](O)C(=O)N[C@@H](CO[C@H]1O[C@H](CO)[C@H](O)[C@H](O)[C@H]1O)[C@H](O)CCCCCCCCCCCCCCC [Compound 14, (2S,3R)-1-(α-D-galactopyranosyloxy)-2-[(R)-2-hydroxytetracosanoylamino]-3-octadecanol] | 289% | 197% | 139% | 84%
CCCCCCCCCCCCC/C=C/[C@@H](O)[C@H](CO[C@H]1O[C@H](CO)[C@H](O)[C@H](O)[C@H]1O)NC(=O)CCCCCCCCCCCCCCCCC [Compound 15, (2S,3R,4E)-1-(α-D-galactopyranosyloxy)-2-octadecanoylamino-4-octadecen-3-ol] | 360% | 165% | 144% | 61.9%
CCCCCCCCCCCCCCCCCCCCCCCC(=O)N[C@@H](CO[C@H]1O[C@H](CO)[C@H](O)[C@H](O)[C@H]1O)[C@H](O)[C@H](O)CCCCCCCCCCCCCC [Compound 16, (2S,3S,4R)-1-(α-D-galactopyranosyloxy)-2-tetracosanoylamino-3,4-octadecanediol] | 321% | 176% | 160% | 65%
CCCCCCCCCCCCCCCCCCCCCCCC(=O)N[C@@H](CO[C@H]1O[C@H](CO)[C@H](O)[C@H](O)[C@H]1O)[C@H](O)[C@H](O)CCCCCCCCCCCCC [Compound 17, (2S,3S,4R)-1-(α-D-galactopyranosyloxy)-2-tetracosanoylamino-3,4-heptadecanediol] | 410% | 190% | 143% | 58%
CCCCCCCCCCCCCCCCCCCCCCCC(=O)N[C@@H](CO[C@H]1O[C@H](CO)[C@H](O)[C@H](O)[C@H]1O)[C@H](O)[C@H](O)CCCCCCCCCCC [Compound 18, (2S,3S,4R)-1-(α-D-galactopyranosyloxy)-2-tetracosanoylamino-3,4-pentadecanediol] | 482% | 176% | 138% | 66.3%
CCCCCCCCCCCCCCCCCCCCCCCC(=O)N[C@@H](CO[C@H]1O[C@H](CO)[C@H](O)[C@H](O)[C@H]1O)[C@H](O)[C@H](O)CCCCCCC [Compound 19, (2S,3S,4R)-1-(α-D-galactopyranosyloxy)-2-tetracosanoylamino-3,4-undecanediol] | 345% | 188% | 144% | 80.2%
